One assay concerns the target T1, hIP (Homo sapiens, UniProt P43119).
T1 construct: expressed in transfected cells
Briefly: FLIPR calcium signal, hIP. It counts as cell-based. As to conditions: HEK-293(EBNA) cells; NA = no activity; read-out: Other Receptors EC50 hIP. The protocol: Methods for FLIPR™ Studies
HEK-293(EBNA) cells, stably expressing one type or subtype of recombinant human prostaglandin receptors (prostaglandin receptors expressed: hDP/Gqs5; hEP1; hEP2/Gqs5; hEP3A/Gqi5; hEP4/Gqs5; hFP; hIP; hTP), were cultured in 100 mm culture dishes in high-glucose DMEM medium containing 10% fetal bovine serum, 2 mM I-glutamine, 250 μg/ml geneticin (G418) and 200 μg/ml hygromycin B as selection markers, and 100 units/ml penicillin G, 100 μg/ml streptomycin and 0.25 μg/ml amphotericin B.
(b) Calcium Signal Studies on the FLIPR™
Cells were seeded at a density of 5×10^4 cells per well in Biocoat® Poly-D-lysine-coated black-wall, clear-bottom 96-well plates (Becton-Dickinson) and allowed to attach overnight in an incubator at 37° C. Cells were then washed two times with HBSS-HEPES buffer (Hanks Balanced Salt Solution without bicarbonate and phenol red, 20 mM HEPES, pH 7.4) using a Denley Cellwash plate washer (Labsystems). […]
Cells were excited with an Argon laser at 488 nm, and emission was measured through a 510-570 nm bandwidth emission filter (FLIPR™, Molecular Devices, Sunnyvale, Calif.). […] The peak increase in fluorescence intensity was recorded for each well. […] The peak fluorescence change in each drug-containing well was then expressed relative to the controls. […]

In assay [1] the target is T2, EP2 (Homo sapiens, UniProt P43116). Briefly: Ki competition binding, EP2. Also on record: expressed in transfected cells. As to conditions: [3H]PGE2 competition; NA = no activity. The protocol:
(§1) Data from running binding and activity studies on the compounds of the invention were carried out as described in U.S. Pat. No. 7,427,685, the contents of which are incorporated herein by reference.
Competition binding experiments were performed in a medium containing Hank's balanced salt solution, Hepes 20 mM, pH 7.3, membranes (˜60 μg protein) or 2×10^5 cells from HEK 293 cells stably expressing human EP2 receptors, [^3H]PGE2 (10 nM) and various concentrations of test compounds in a total volume of 300 μl. Reaction mixtures were incubated at 23° C. for 60 min, and were filtered over Whatman GF IB filters under vacuum. Filters were washed three times with 5 ml ice-cold buffer containing 50 mM Tris/HCl (PH 7.3). Non-specific binding was estimated in the presence of excess unlabeled PGE2 (10 μM). Binding data fitted to the binding model for a single class of binding sites, using nonlinear regression analysis. IC50 values thus obtained were converted to Ki using the equation of Ki=(IC50/(1+[L]/KD) where [L] represents PGE2 concentration (10 nM) and KD the dissociation constant for [^3H]PGE2 at human EP2 receptors (40 nM).
(§2) Cells Stably Expressing EP1, EP2, EP4, and FP Receptors
(§3) HEK-293 cells stably expressing the human or feline FP receptor, or EP1, EP2, or EP4 receptors were washed with TME buffer, scraped from the bottom of the flasks, and homogenized for 30 sec using a Brinkman PT 10/35 polytron. TME buffer was added to achieve a final 40 ml volume in the centrifuge tubes (the composition of TME is 100 mM TRIS base, 20 mM MgCl2, […]; ION HCl is added to achieve a pH of 7.4).
(§4) The cell homogenate was centrifuged at 19000 rpm for 20 min at 4° C. using a Beckman Ti-60 rotor. The resultant pellet was resuspended in TME buffer to give a final 1 mg/ml protein concentration, as determined by Biorad assay. Radioligand binding competition assays vs. [^3H-]17-phenyl PGF2α (5 nM) were performed in a 100 μl volume for 60 min. Binding reactions were started by adding plasma membrane fraction. The reaction was terminated by the addition of 4 ml ice-cold TRIS-HCl buffer and rapid filtration through glass fiber GF/B filters using a Brandel cell harvester. The filters were washed 3 times with ice-cold buffer and oven dried for one hour.
(§5) [^3H-] PGE2 (specific activity 180 Ci mmol) was used as the radio ligand for EP receptors. [^3H] 17-phenyl PGF2α was employed for FP receptor binding studies. Binding studies employing EP1, EP2, EP4 and FP receptors were performed in duplicate in at least three separate experiments. A 200 μl assay volume was used. Incubations were for 60 min at 25° C. and were terminated by the addition of 4 ml of ice-cold 50 mM TRIS-HCl, followed by rapid filtration through Whatman GF/B filters and three additional 4 ml washes in a cell harvester (Brandel). Competition studies were performed using a final concentration of 5 nM [^3H]-PGE2, or 5 nM [^3H] 17-phenyl PGF2α and non-specific binding determined with 10^−5M of unlabeled PGE2, or 17-phenyl PGF2α, according to receptor subtype studied.

For assay [2], the target named is T3, EP4 (Homo sapiens, UniProt P35408). Briefly: Radioligand binding, EP4. Set-up: expressed in transfected cells; membrane fraction. As to conditions: [3H]PGE2 competition. The protocol:
as §1, §2, §3, §4, §5

Assay [3] deals with T2, EP2. Briefly: cAMP assay, EP2. It counts as cell-based. Also on record: expressed in transfected cells; host or cells: HEK-EBNA cells. Conditions: HEK-EBNA cells expressing EP2. The protocol:
(§6) A 384-well drug plate was prepared to contain 6 test compounds, PGE2 and cAMP in 16 serial dilutions in triplicate, using a Biomek station. HEK-EBNA cells expressing a target PG receptor subtype (EP2 or EP4) were suspended in a stimulation buffer (HBSS, 0.1% BSA, 0.5 mM IBMX and 5 mM HEPES, pH 7.4) in a density of 10^4 cells/5 μL. The reaction was initiated by mixing 5 μL drug dilutions with 5 μL of HEK-EBNA cells in a well, carried out for 30 min at room temperature, and followed by the addition of 5 μL anti-cAMP acceptor beads in the control buffer with Tween-20 (25 mM NaCl, 0.03% Tween-20, 5 mM HEPES, pH 7.4). After 30 min in the dark at room temperature, the mixtures were incubated with 15 μL biotinylated-cAMP/strepavidin donor beads in Lysis/Detection buffer (0.1% BSA, 0.3% Tween-20 and 5 mM HEPES, pH 7.4) for 45 min at the room temperature. Fluorescence changes were read using a Fusion-alpha HT microplate reader.

The target in assay [4] is T3, EP4. Briefly: cAMP assay, EP4. It counts as cell-based. Set-up: expressed in transfected cells; host or cells: HEK-EBNA cells. As to conditions: HEK-EBNA cells expressing EP4. The procedure:
as §6

T2 sequence (P43116 whole entry): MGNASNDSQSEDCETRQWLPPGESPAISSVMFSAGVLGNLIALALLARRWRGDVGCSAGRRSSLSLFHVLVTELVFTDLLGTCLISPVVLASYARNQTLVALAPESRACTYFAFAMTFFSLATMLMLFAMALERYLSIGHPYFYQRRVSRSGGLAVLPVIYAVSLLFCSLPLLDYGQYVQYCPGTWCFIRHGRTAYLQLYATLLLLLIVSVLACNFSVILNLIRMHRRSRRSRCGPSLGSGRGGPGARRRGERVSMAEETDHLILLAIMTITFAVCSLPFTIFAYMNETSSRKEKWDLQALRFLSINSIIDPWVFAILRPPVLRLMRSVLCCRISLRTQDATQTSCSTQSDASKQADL
T3 sequence (P35408 whole entry): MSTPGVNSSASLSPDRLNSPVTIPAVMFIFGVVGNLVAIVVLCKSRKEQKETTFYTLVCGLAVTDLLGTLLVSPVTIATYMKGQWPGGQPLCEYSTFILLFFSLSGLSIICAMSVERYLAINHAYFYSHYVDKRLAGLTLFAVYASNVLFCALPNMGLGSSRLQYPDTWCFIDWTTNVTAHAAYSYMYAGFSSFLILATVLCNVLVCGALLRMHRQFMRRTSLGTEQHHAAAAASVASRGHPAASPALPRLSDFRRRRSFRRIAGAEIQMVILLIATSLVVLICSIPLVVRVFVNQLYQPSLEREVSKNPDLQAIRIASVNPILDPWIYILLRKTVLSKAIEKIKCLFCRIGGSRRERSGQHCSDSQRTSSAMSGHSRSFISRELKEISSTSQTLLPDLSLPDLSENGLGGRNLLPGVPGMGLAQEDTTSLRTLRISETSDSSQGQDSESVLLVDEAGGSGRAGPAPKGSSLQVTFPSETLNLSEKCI
T1 sequence (P43119 whole entry): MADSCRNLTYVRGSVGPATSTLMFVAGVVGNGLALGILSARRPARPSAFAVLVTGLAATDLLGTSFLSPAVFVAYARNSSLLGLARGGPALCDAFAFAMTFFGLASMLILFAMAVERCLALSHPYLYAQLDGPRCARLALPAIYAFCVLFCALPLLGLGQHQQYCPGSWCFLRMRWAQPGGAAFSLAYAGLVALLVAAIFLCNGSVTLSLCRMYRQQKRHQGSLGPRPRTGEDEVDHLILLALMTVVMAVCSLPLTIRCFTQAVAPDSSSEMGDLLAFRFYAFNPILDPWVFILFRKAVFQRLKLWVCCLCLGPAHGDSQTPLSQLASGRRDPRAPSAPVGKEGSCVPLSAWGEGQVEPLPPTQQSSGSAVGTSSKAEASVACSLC

For `COc1cc(CC2=C(C(=O)NCc3ccc(C(=O)O)cc3)CCCCC2)cc(OC)c1` [Example 11, 4-((2-(3,5-Dimethoxybenzyl)cyclohept-1-enecarboxamido)methyl)benzoic Acid], the 50% effective concentration (EC50) on hIP is more than 10 µM; on EP2 [3] it was 0.048 µM; at EP4 [4], more than 10 µM. The figures for the Ki on EP2 [1] and on EP4 [2] were 2.78 µM and 0.001 µM, respectively.

`O=C(O)c1ccc(CNC(=O)C2CCCC2Cc2cccc(C(F)(F)F)c2)cc1` (single isomer, unassigned) [Example 6, 4-((2-(3-(Trifluoromethyl)benzyl)cyclopentanecarboxamido)methyl)benzoic Acid]: the EC50 is more than 10 µM on hIP, 0.01 µM on EP2 [3] and more than 10 µM on EP4 [4]. Besides, the Ki on EP2 [1] was 0.733 µM; at EP4 [2], 0.018 µM.

These data come from patent publication US10407382B2, “EP4 agonists as therapeutic compounds” (ALLERGAN, INC., priority 2014, dated 2019).
